The values that follow come from patent US8735414B2 (priority 2009, dated 2014).

Data set [1] deals with bicistronic HCV replicon (replicon RNA, GenBank Accession No. AJ242654). In words: HCV Replicon Assay. The data set is classed as cell-based. The conditions noted are these: Hepatitis C virus, 72 h, read-out: Replicon IC50. Background: Replicon systems follow genome replication, usually without infectious particles.

Usually IC50 stands for the midpoint of a concentration-inhibition curve. Broadly, the melting point is the temperature, or range, at which the solid turns liquid. For the molecule `Cc1cc2c(cc1F)c(C#N)c(-c1ccc(S(=O)(=O)N[C@@H](C)C(F)(F)F)c(C)n1)n2C1CCCC1` [compound 868, 6-(3-cyano-1-cyclopentyl-5-fluoro-6-methyl-1H-indol-2-yl)-2-methyl-N-[(2S)-1,1,1-trifluoropropan-2-yl]pyridine-3-sulfonamide], the melting point lay in the range of 206 to 211 °C. Also, in data set [1], the IC50 is below 500 nM.
As for `CCc1cc2c(cc1F)c(C(N)=O)c(-c1ccc(NS(=O)(=O)C(C)(C)C)nc1)n2[C@H](C)C1CC1` [compound 1104, 2-{6-[(tert-butylsulfonyl)amino]pyridin-3-yl}-1-[(1R)-1-cyclopropylethyl]-6-ethyl-5-fluoro-1H-indole-3-carboxamide], the melting point was 255.5 to 259 °C. Also, the IC50 in data set [1] was below 500 nM.
On to `CCc1cc2c(cc1F)c(C#N)c(-c1ccc(S(=O)(=O)NC3(C(F)(F)F)CC3)cn1)n2C1CCCC1` [compound 637, 6-(3-cyano-1-cyclopentyl-6-ethyl-5-fluoro-1H-indol-2-yl)-N-[1-(trifluoromethyl)cyclopropyl]pyridine-3-sulfonamide], for which the melting point is 198 to 199 °C. In addition, the IC50 in data set [1] is below 500 nM.
In the case of `CCn1c(-c2ccc(NS(=O)(=O)C3CC3)cn2)c(C#N)c2ccc(OC(C)C)cc21` [compound 285, N-{6-[3-cyano-1-ethyl-6-(propan-2-yloxy)-1H-indol-2-yl]pyridin-3-yl}cyclopropanesulfonamide], the melting point lay in the range of 180 to 185 °C. In data set [1], the IC50 lay within 500 to 2000 nM.
`Cc1ccc(-n2c(-c3ccc(S(=O)(=O)N[C@@H](C)C(F)(F)F)cn3)c(C#N)c3cc(F)c(C)cc32)nc1` [compound 885, 6-[3-cyano-5-fluoro-6-methyl-1-(5-methylpyridin-2-yl)-1H-indol-2-yl]-N-[(2S)-1,1,1-trifluoropropan-2-yl]pyridine-3-sulfonamide] returned a melting point of 250 to 254 °C. Also, the IC50 in data set [1] was below 500 nM.
For `Cc1cc2c(cc1F)c(C#N)c(-c1ccc(S(=O)(=O)NC(C)(C)C(F)(F)F)cn1)n2C1CCCCC1` [compound 705, 6-(3-cyano-1-cyclohexyl-5-fluoro-6-methyl-1H-indol-2-yl)-N-(1,1,1-trifluoro-2-methylpropan-2-yl)pyridine-3-sulfonamide] the same measures were 248 to 254 °C and below 500 nM.
Turning to `CCCn1c(-c2ncc(S(=O)(=O)N[C@@H](C)C3CC3)cn2)c(C#N)c2ccc(OC(F)F)cc21` [compound 208, 2-[3-cyano-6-(difluoromethoxy)-1-propyl-1H-indol-2-yl]-N-[(1S)-1-cyclopropylethyl]pyrimidine-5-sulfonamide], the melting point lay within 152 to 154 °C. Further, in data set [1], the concentration for half-maximal inhibition (IC50) is below 500 nM.
For `CC(C)c1ccc2c(C#N)c(-c3ncc(S(=O)(=O)NC(CF)CF)cn3)n(C3CCC3)c2c1` [compound 186, 2-[3-cyano-1-cyclobutyl-6-(propan-2-yl)-1H-indol-2-yl]-N-(1,3-difluoropropan-2-yl)pyrimidine-5-sulfonamide] the same measures were 214 to 222 °C and below 500 nM.
On to `C[C@H](NS(=O)(=O)c1ccc(-c2c(C#N)c3cc(F)c(C4CC4)cc3n2C2CCC2)nc1)C(F)(F)F` [compound 630, 6-(3-cyano-1-cyclobutyl-6-cyclopropyl-5-fluoro-1H-indol-2-yl)-N-[(2S)-1,1,1-trifluoropropan-2-yl]pyridine-3-sulfonamide], for which the melting point lay within 201 to 203 °C. The IC50 in data set [1] is below 500 nM.
The corresponding values for `N#Cc1ccc2c(C#N)c(-c3ccc(S(=O)(=O)NC(CF)CF)cn3)n(C3CCC3)c2c1` [compound 465, 6-(3,6-dicyano-1-cyclobutyl-1H-indol-2-yl)-N-(1,3-difluoropropan-2-yl)pyridine-3-sulfonamide] are 203 to 204 °C and below 500 nM.
The corresponding values for `C[C@@H](NS(=O)(=O)c1ccc(-c2c(C#N)c3ccc(CF)cc3n2C2CCC2)nc1)C(F)(F)F` [compound 319, 6-[3-cyano-1-cyclobutyl-6-(fluoromethyl)-1H-indol-2-yl]-N-[(2R)-1,1,1-trifluoropropan-2-yl]pyridine-3-sulfonamide] are 200 to 213 °C and 500 to 2000 nM.
For the molecule `Cc1cc2c(C#N)c(-c3ccc(S(=O)(=O)N[C@@H](C)C(F)(F)F)cn3)n(-c3ccccn3)c2cc1F` [compound 917, 6-[3-cyano-6-fluoro-5-methyl-1-(pyridin-2-yl)-1H-indol-2-yl]-N-[(2S)-1,1,1-trifluoropropan-2-yl]pyridine-3-sulfonamide], the melting point was in the range of 175 to 180 °C. Further, the concentration for half-maximal inhibition (IC50) in data set [1] is below 500 nM.
In turn, `C[C@H](NS(=O)(=O)c1cnc(-c2c(C#N)c3cc(F)ccc3n2C2CCCCC2)nc1)C1CC1` [compound 528, 2-(3-cyano-1-cyclohexyl-5-fluoro-1H-indol-2-yl)-N-[(1S)-1-cyclopropylethyl]pyrimidine-5-sulfonamide] displayed a melting point of 219 to 221 °C. Besides, the IC50 in data set [1] was below 500 nM.
`N#Cc1c(-c2ncc(S(=O)(=O)NC(CF)CF)cn2)n(C2CCCC2)c2ccc(C(F)F)cc12` [compound 536, 2-[3-cyano-1-cyclopentyl-5-(difluoromethyl)-1H-indol-2-yl]-N-(1,3-difluoropropan-2-yl)pyrimidine-5-sulfonamide] gave a melting point of 176 to 177 °C. Also, the IC50 in data set [1] was below 500 nM.
The corresponding values for `CCc1cc2c(cc1F)c(C#N)c(-c1ccc(S(=O)(=O)N[C@@H](C)C(F)(F)F)cn1)n2-c1cccnc1` [compound 954, 6-[3-cyano-6-ethyl-5-fluoro-1-(pyridin-3-yl)-1H-indol-2-yl]-N-[(2S)-1,1,1-trifluoropropan-2-yl]pyridine-3-sulfonamide] are 205 to 212 °C and below 500 nM.
Molecule `Cc1cc2c(cc1F)c(C#N)c(-c1ccc(S(=O)(=O)N[C@@H](C)C(F)(F)F)cn1)n2-c1cccc(F)n1` [compound 815, 6-[3-cyano-5-fluoro-1-(6-fluoropyridin-2-yl)-6-methyl-1H-indol-2-yl]-N-[(2S)-1,1,1-trifluoropropan-2-yl]pyridine-3-sulfonamide] came in with a melting point of 210 to 212 °C. Also, in data set [1], the 50% inhibitory concentration (IC50) was below 500 nM.
The corresponding values for `C[C@H](NS(=O)(=O)c1ccc(-c2c(C#N)c3cc(F)c(C4CC4)cc3n2-c2ncccn2)nc1)C(F)(F)F` [compound 820, 6-[3-cyano-6-cyclopropyl-5-fluoro-1-(pyrimidin-2-yl)-1H-indol-2-yl]-N-[(2S)-1,1,1-trifluoropropan-2-yl]pyridine-3-sulfonamide] are 236 to 240 °C and below 500 nM.
The corresponding values for `COc1ccc2c(C#N)c(-c3ncc(S(=O)(=O)NC(C)C)cn3)n(C3CCC3)c2c1` [compound 172, 2-(3-cyano-1-cyclobutyl-6-methoxy-1H-indol-2-yl)-N-(propan-2-yl)pyrimidine-5-sulfonamide] are 200 to 202 °C and below 500 nM.
`Cc1ccc2c(C#N)c(-c3ccc(S(=O)(=O)N[C@@H](C)C(F)(F)F)cn3)n(C3CCCCC3)c2c1` [compound 354, 6-(3-cyano-1-cyclohexyl-6-methyl-1H-indol-2-yl)-N-[(2S)-1,1,1-trifluoropropan-2-yl]pyridine-3-sulfonamide] yielded a melting point of 207 to 212 °C. Moreover, the IC50 in data set [1] was below 500 nM.
In the case of `C[C@@H](NS(=O)(=O)c1ccc(-c2c(C#N)c3ccc(OC(F)F)cc3n2-c2ccccc2)nc1)C(F)(F)F` [compound 554, 6-[3-cyano-6-(difluoromethoxy)-1-phenyl-1H-indol-2-yl]-N-[(2R)-1,1,1-trifluoropropan-2-yl]pyridine-3-sulfonamide], the melting point fell in the range of 212 to 213 °C. In data set [1], the IC50 was below 500 nM.
As for `CCS(=O)(=O)Nc1ccc(-c2c(C#N)c3ccc(OCC(F)(F)F)cc3n2CC2CC2)nc1` [compound 284, N-{6-[3-cyano-1-(cyclopropylmethyl)-6-(2,2,2-trifluoroethoxy)-1H-indol-2-yl]pyridin-3-yl}ethanesulfonamide], the melting point was in the range of 190 to 195 °C. In data set [1], the IC50 lay in the range of 500 to 2000 nM.
Take `CC(C)NS(=O)(=O)c1cnc(-c2c(C#N)c3ccc(F)cc3n2C2CCCCC2)nc1` [compound 251, 2-(3-cyano-1-cyclohexyl-6-fluoro-1H-indol-2-yl)-N-(propan-2-yl)pyrimidine-5-sulfonamide]: the melting point lay in the range of 200 to 202 °C. The IC50 in data set [1] fell in the range of 500 to 2000 nM.
`N#Cc1c(-c2ncc(S(=O)(=O)NC(CF)CF)cn2)n(C2CCC2)c2cc(F)ccc12` [compound 163, 2-(3-cyano-1-cyclobutyl-6-fluoro-1H-indol-2-yl)-N-(1,3-difluoropropan-2-yl)pyrimidine-5-sulfonamide] registered a melting point of 193 to 195 °C. Moreover, the IC50 in data set [1] lay within 500 to 2000 nM.
The corresponding values for `C[C@H](NS(=O)(=O)c1ccc(-c2c(C#N)c3cc(Cl)ccc3n2C2CCCCC2)nc1)C(F)(F)F` [compound 462, 6-(5-chloro-3-cyano-1-cyclohexyl-1H-indol-2-yl)-N-[(2S)-1,1,1-trifluoropropan-2-yl]pyridine-3-sulfonamide] are 220 to 222 °C and below 500 nM.
For `C[C@@H](NS(=O)(=O)c1ccc(-c2c(C(N)=O)c3cc(F)c(OC(F)F)cc3n2C2CCCC2)nc1)C(F)(F)F` [compound 718, 1-cyclopentyl-6-(difluoromethoxy)-5-fluoro-2-(5-{[(2R)-1,1,1-trifluoropropan-2-yl]sulfamoyl}pyridin-2-yl)-1H-indole-3-carboxamide], the melting point fell in the range of 218 to 220 °C. For the same molecule, in data set [1], the 50% inhibitory concentration (IC50) is below 500 nM.
`CSc1cc2c(cc1F)c(C#N)c(-c1ccc(S(=O)(=O)N[C@@H](C)C(F)(F)F)cn1)n2C1CCC1` [compound 772, 6-[3-cyano-1-cyclobutyl-5-fluoro-6-(methylsulfanyl)-1H-indol-2-yl]-N-[(2S)-1,1,1-trifluoropropan-2-yl]pyridine-3-sulfonamide] displayed a melting point of 201 to 203 °C. Further, the concentration for half-maximal inhibition (IC50) in data set [1] is below 500 nM.
